Tests used:
[1] = tested on: Ipomoea hederacea (L.) Jacq. (IPOHE); experiment: Pre-emergence soil-applied herbicidal mixtures for weed control (greenhouse); type: in vivo
[2] = tested on: Xanthium strumarium L. (XANST); experiment: as above; type: in vivo
[3] = Compound A Benzyl Ester 16 g ae/ha alone
[4] = Compound A Benzyl Ester 32 g ae/ha alone

## COc1c(Cl)ccc(-c2nc(C(=O)OCc3ccccc3)c(Cl)c(N)c2F)c1F [Compound A Benzyl Ester, benzyl ester of 4-amino-3-chloro-5-fluoro-6-(4-chloro-2-fluoro-3-methoxy-phenyl)pyridine-2-carboxylic acid]
[1]; [3]
  Visual Weed Control (%) - 28 DAA IPOHE Obs: 13%
[1]; [4]
  Visual Weed Control (%) - 28 DAA IPOHE Obs: 23%
[2]; [3]
  Visual Weed Control (%) - 28 DAA XANST Obs: 0%
[2]; [4]
  Visual Weed Control (%) - 28 DAA XANST Obs: 5%
